Data reported in US9023789B2, “Amylin analogs and pharmaceutical compositions thereof” (Novo Nordisk A/S, priority 2012, dated 2015).
pEC50, pIC50: −log10 of the molar value. Numbered stars: 1 amine (or outer) side, 2 acyl side, 3 side chain; on linkers, the order of the positions; unused ones are H or OH. Bridge positions count the residues as written; N and C are the ends. Side chains are listed from the residue outwards. Peptide text beside a SMILES is read from it. * marks the point of attachment. C20 diacid = O=C(O)CCCCCCCCCCCCCCCCCCC(=O)*; γGlu = O=C(O)[C@H](CCC(=O)[*:2])N[*:1]; AEEA = NCCOCCOCC(=O)O

Legend:
[1] = molecular target: T1, human calcitonin receptor (Homo sapiens, UniProt P30988); assay: ASSAY (VII) binding to the human calcitonin receptor (SPA, 125I-Calcitonin); details: read-out: hCTR bind IC50;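 further: cell membranes (35 ng/µL) combined with SPA beads in 40 µL of pH 7.4 Hepes buffer, 384-well format, signal counted on a TopCounter instrument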
T1 construct: expressed in transfected cells
T1 sequence (P30988 25-474): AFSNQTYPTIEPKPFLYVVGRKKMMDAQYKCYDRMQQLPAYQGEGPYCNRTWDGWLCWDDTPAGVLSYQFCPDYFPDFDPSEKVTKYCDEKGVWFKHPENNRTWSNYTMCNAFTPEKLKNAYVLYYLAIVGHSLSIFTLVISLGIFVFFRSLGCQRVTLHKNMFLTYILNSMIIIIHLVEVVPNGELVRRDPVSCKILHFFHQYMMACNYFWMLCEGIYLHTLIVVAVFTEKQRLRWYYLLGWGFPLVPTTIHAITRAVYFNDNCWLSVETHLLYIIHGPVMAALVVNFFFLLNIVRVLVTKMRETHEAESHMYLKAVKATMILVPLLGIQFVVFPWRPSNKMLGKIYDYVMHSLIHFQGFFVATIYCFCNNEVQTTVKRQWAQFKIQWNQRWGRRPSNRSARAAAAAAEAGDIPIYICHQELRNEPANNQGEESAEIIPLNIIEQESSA

[2] = molecular target: T2, human amylin receptor (membranes from Amylin 3(a)/CRE-luc cells) (Homo sapiens, UniProt O60896+P30988); assay: ASSAY (V) binding to the human amylin receptor (SPA, 125I-rat amylin);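 further: competition binding of cell membranes (35 ng/µL) mixed with SPA beads in 384-well plates at 40 µL total volume, read by scintillation counting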
T2 construct: expressed in transfected cells
T2 sequence (P30988 25-474): T1 sequence (P30988 25-474)
T2 sequence (O60896 24-148 partner): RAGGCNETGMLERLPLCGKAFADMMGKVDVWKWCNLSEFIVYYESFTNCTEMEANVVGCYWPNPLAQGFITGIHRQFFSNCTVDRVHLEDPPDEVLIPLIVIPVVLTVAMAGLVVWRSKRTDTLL
Protocol: The binding assay was performed using scintillation proximity assay (SPA) beads (RPNQ0001) from PerkinElmer and cell membranes from the Amylin 3(a)/CRE-luc cells (as described in Assay (II)) were used. Membranes were prepared in the following way; the cells were rinsed with PBS and incubated with Versene for approximately 5 min before harvesting. The cells were flushed with PBS and the cell-suspension was centrifuged for 5 min at 1000 rpm. […] The resulting pellet was resuspended in buffer 2 and protein concentration was measured (BCA protein Assay, Pierce). The homogenate was kept cold during the whole procedure. The membranes were kept at −80° C. until use. The assay was performed in a 384 well Optiplate (PerkinElmer) in a total volume of 40 ul. Membranes were mixed with SPA beads. Final concentration of membranes 35 ng/μL final and SPA beads was 0.05 mg/well. Test-compounds were dissolved in DMSO and further diluted in assay buffer (50 mM Hepes, pH 7.4, 1 mM CaCl2, 5 mM MgCl2, 0.1% OA and 0.02% Tween20). […] Samples were analyzed on TopCounter™ (Packard). The IC50 was calculated using (one site binding competition analysis) GraphPad Prism5 as a measure of receptor affinity.

[3] = molecular target: T3, human amylin 3(a) receptor (human calcitonin receptor + RAMP-3) in BHK570 cells (Homo sapiens, UniProt O60896+P30988); assay: ASSAY (II)a functional assay, human amylin receptor (CRE luciferase); format: cell-based
T3 construct: expressed in transfected cells
How it was run: (§1)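 BHK cells stably carrying a CRE-luciferase reporter plus calcitonin receptor, or calcitonin receptor with RAMP-3 for the amylin 3(a) receptor, were seeded and kept overnight at 37° C. Compounds were added in assay medium with 10% FBS and 10 mM Hepes, pH 7.4, for 3 hours at 37° C, then luminescence was counted.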

[4] = molecular target: T4, human calcitonin (a) receptor in BHK570 cells (Homo sapiens, UniProt P30988); assay: ASSAY (II)a functional assay, human calcitonin receptor (CRE luciferase); format: cell-based; details: read-out: hCTR funct. EC50
T4 construct: expressed in transfected cells
T4 sequence (P30988 25-474): T1 sequence (P30988 25-474)
How it was run: as §1

[5] = ASSAY (IX) pK, determination of T½ in mini-pig; format: in vivo; details: male, Göttingen, minipig, plasma, iv, 2 nmol/kg
[6] = ASSAY (X) pK, determination of T½ in rat; format: in vivo; details: male, Sprague Dawley, plasma, iv, 20 nmol/kg
[7] = Table 5, selectivity, hCTR bind IC50 / hAmylin-R bind IC50
[8] = Table 5a, selectivity, hCTR bind IC50 / hAmylin-R bind IC50
[9] = Table 5b, selectivity, hCTR bind IC50 / hAmylin-R bind IC50
[10] = Table 5c, selectivity, hCTR bind IC50 / hAmylin-R bind IC50
[11] = Table 7, human binding selectivity, included for comparison
[12] = Table 7a (preferred compounds), human binding selectivity, included for comparison
[13] = ratio of human calcitonin receptor binding IC50 to human amylin receptor binding IC50
[14] = hCTR funct. EC50 divided by hAmylin-R funct. EC50
[15] = hCTR funct. EC50 over hAmylin-R funct. EC50
[16] = human functional selectivity: hCTR funct. EC50 / hAmylin-R funct. EC50

SMILES	pIC50 [1]	pIC50 ([2]; Table 4, read-out: hAmylin-R bind IC50)	Ratio hCT/hAmylin binding [2, 7]	Ratio hCT/hAmylin binding [2, 8]	Ratio hCT/hAmylin binding [2, 9]	Ratio hCT/hAmylin binding [2, 10]	Ratio hCT/hAmylin binding [2, 11]	Ratio hCT/hAmylin binding [2, 12]	Ratio hCT/hAmylin binding [2, 13]	Ratio hCT/hAmylin funct. [3, 14]	Ratio hCT/hAmylin funct. [3, 15]	pEC50 ([3]; human amylin receptor functional potency, assay (II), read-out: hAmylin-R funct. EC50)	Ratio hCT/hAmylin funct. [3, 16]	pEC50 [4]	half-life [5]	half-life [6]
CC[C@H](C)[C@H](NC(=O)[C@H](C)NC(=O)CNC(=O)[C@H](Cc1ccccc1)NC(=O)[C@H](CC(N)=O)NC(=O)[C@@H]1CCCN1C(=O)[C@H](CO)NC(=O)[C@H](CO)NC(=O)[C@H](Cc1c[nH]cn1)NC(=O)[C@H](CCCNC(=N)N)NC(=O)[C@H](CC(C)C)NC(=O)[C@H](Cc1ccccc1)NC(=O)[C@H](CC(N)=O)NC(=O)[C@H](C)NC(=O)[C@H](CC(C)C)NC(=O)[C@H](CCCNC(=N)N)NC(=O)[C@H](CCC(N)=O)NC(=O)[C@@H](NC(=O)[C@H](C)NC(=O)[C@@H]1CSSC[C@H](NC(=O)[C@@H](N)CCCCNC(=O)COCCOCCNC(=O)CC[C@H](NC(=O)CCCCCCCCCCCCCCCCCCC(=O)O)C(=O)O)C(=O)N[C@@H](CC(N)=O)C(=O)N[C@@H]([C@@H](C)O)C(=O)N[C@@H](C)C(=O)N[C@@H]([C@@H](C)O)C(=O)N1)[C@@H](C)O)C(=O)N1CCC[C@H]1C(=O)N[C@@H](CO)C(=O)N[C@@H](CO)C(=O)N[C@H](C(=O)N[C@@H](CC(N)=O)C(=O)N[C@H](C(=O)NCC(=O)N[C@@H](Cc1c[nH]cn1)C(=O)N[C@@H](CC(N)=O)C(=O)N[C@H](C(=O)N[C@@H](Cc1ccc(O)cc1)C(N)=O)[C@@H](C)O)C(C)C)[C@@H](C)O [Example 76] (H-K([AEEA-γGlu-C20 diacid])CNTATCATQRLANFLRHSSPNFGAIPSSTNVGHNTY-NH2; disulfide 2-7; N-terminus assumed)	7.76	9.67	80.0	80.0	80.0	80.0	80.0	80.0	80.0	24.8	24.8	9.53	24.8	8.13	76 h	–
CC[C@H](C)[C@H](NC(=O)[C@H](C)NC(=O)CNC(=O)[C@H](Cc1ccccc1)NC(=O)[C@H](CC(N)=O)NC(=O)[C@@H]1CCCN1C(=O)[C@H](CO)NC(=O)[C@H](CO)NC(=O)[C@H](Cc1c[nH]cn1)NC(=O)[C@H](CCCNC(=N)N)NC(=O)[C@H](CC(C)C)NC(=O)[C@H](Cc1ccccc1)NC(=O)[C@H](CC(N)=O)NC(=O)[C@H](C)NC(=O)[C@H](CC(C)C)NC(=O)[C@H](CCCNC(=N)N)NC(=O)[C@H](CCC(N)=O)NC(=O)[C@@H](NC(=O)[C@H](C)NC(=O)[C@@H]1CSSC[C@H](NC(=O)[C@@H](N)CCCCNC(=O)CC[C@H](NC(=O)CCCCCCCCCCCCCCCCCCC(=O)O)C(=O)O)C(=O)N[C@@H](CC(N)=O)C(=O)N[C@@H]([C@@H](C)O)C(=O)N[C@@H](C)C(=O)N[C@@H]([C@@H](C)O)C(=O)N1)[C@@H](C)O)C(=O)N1CCC[C@H]1C(=O)N[C@@H](CO)C(=O)N[C@@H](CO)C(=O)N[C@H](C(=O)N[C@@H](CC(N)=O)C(=O)N[C@H](C(=O)NCC(=O)N[C@@H](Cc1c[nH]cn1)C(=O)N[C@@H](CC(N)=O)C(=O)N[C@H](C(=O)N[C@@H](Cc1ccc(O)cc1)C(N)=O)[C@@H](C)O)C(C)C)[C@@H](C)O [Example 77]	–	–	118.4	118.4	118.4	118.4	118.4	118.4	118.4	37.3	37.3	–	37.3	–	81 h	18 h
